Source: PMC8509428, “The Phenoxyalkyltriazine Antagonists for 5-HT6 Receptor with Promising Procognitive and Pharmacokinetic Properties In Vivo in Search for a Novel Therapeutic Approach to Dementia Diseases” (International Journal of Molecular Sciences, 2021)
“And” between values parts separate entries of the source, which are not always exact repeats. Equal entries are not always repeated. Structures can show the parent of a compound that is named as a salt. Where two headings read alike, the source gives them in different places.

Tests used:
[1] = target: T1, human serotonin 5-HT6 receptor (Homo sapiens, UniProt P50406); experiment: Functional assay for 5-HT6 receptor (cAMP, 1321N1 cells)
[2] = test system: MK-801-induced memory deficits in rats; experiment: Novel object recognition (NOR) test, MK-801-induced memory impairment; type: in vivo, rat; conditions: MK-801 0.1 mg/kg i.p. + vehicle; 0.1 mg/kg
Procedure: Five days before the experiment, the rats were transferred to the laboratory, labelled and, thereafter, left to acclimate to the new environment. The animals were handling every five days before experiments to minimize the stress reaction. The protocol was adapted from the original work. The test session comprising of two trials separated by an inter-trial interval (ITI) of 1 h was carried out after 2 days of the training session. During the first trial (familiarization, T1) two identical objects (A1 and A2) were presented in the opposite corners of the open field, approximately 10 cm from the walls. During the second trial (recognition, T2) one of the A objects was replaced by a novel object B, so that the animals were presented with the A = familiar and B = novel objects. Both trials lasted for 3 min and the animals were returned to their home cages after T1.
The objects used were the metal Coca-Cola cans and the glass jars filled with sand. […] The sequence of presentations and the location of the objects were randomly assigned to each rat. After each measurement, the floor was cleaned and dried.
The animals explored the objects by looking, licking, sniffing or touching the object but not when leaning against, standing or sitting on the object. Any rat exploring the two objects for less than 5 s within 3 min of T1 or T2 was eliminated from the study. The exploration time of the objects was measured by a blind experimenter. Based on the exploration time (E) of two objects during T2, the discrimination index (DI) was calculated according to the formula: DI = (EB − EA)/(EA + […]). Using this metric, scores approaching zero reflects no preference while positive values reflect a preference for the novel object and negative numbers reflect a preference for the familiar.
MK-801, used to attenuate learning, was administered at the dose of 0.1 mg/kg (i.p.) 30 min before the familiarization phase (T1), while investigated compounds were given 60 min before T1 session. In such scheme of experiment we could observe the impact of investigated compounds on the one type of rats’ memory—episodic memory and one phase of memory process—[…].
The total exploration time in T2 was used to express the influence of the treatment on the exploratory activity of the animals.

[3] = test system: MK-801-induced memory deficits in rats; conditions: cited from earlier work
[4] = target: 5-HT6R; conditions: Figure 1; ref 10 (AG-1), 11 (AG-2), 12 (AN-1), 13 (AN-2); cited from earlier work
[5] = test system: rats; conditions: i.p.; ref 10 (AG-1), 11 (AG-2), 12 (AN-1), 13 (AN-2); cited from earlier work
[6] = target: T2, 5-HT1AR (Homo sapiens, UniProt P08908); experiment: Radioligand binding assay (RBA), 5-HT1AR; conditions: ± SD; displacement of [3H]-8-OHDPAT, HEK-293 cells; read-out: Ki 5-HT1A (converted)
T2 construct: expressed in transfected cells; host or cells: HEK-293
T2 sequence (P08908 1-422): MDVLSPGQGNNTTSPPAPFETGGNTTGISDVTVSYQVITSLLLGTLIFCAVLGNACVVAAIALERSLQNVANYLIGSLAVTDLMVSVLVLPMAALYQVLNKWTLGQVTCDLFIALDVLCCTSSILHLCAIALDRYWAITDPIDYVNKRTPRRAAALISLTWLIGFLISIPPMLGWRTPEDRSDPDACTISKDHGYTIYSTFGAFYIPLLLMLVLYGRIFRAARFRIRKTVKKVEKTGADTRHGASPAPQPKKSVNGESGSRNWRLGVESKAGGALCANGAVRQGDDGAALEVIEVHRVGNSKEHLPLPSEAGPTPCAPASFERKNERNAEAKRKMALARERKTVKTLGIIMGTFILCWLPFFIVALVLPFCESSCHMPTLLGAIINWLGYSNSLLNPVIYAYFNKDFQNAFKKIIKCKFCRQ
Procedure: The cells used in the radioligand binding assays receptor 5-HT1A were stably expressed in HEK-293 cells. Transfections were performed with the use of Lipofectamine 2000. The binding procedure was accomplished via the displacement of 2.5 nM [^3H]-8-OHDPAT (135.2 Ci/mmol) for 5-HT1AR. Each compound was tested in triplicate in seven to eight different concentrations (10^−11 to 10^−4 M). The inhibition constants (Ki) were calculated using the Cheng–Prusoff equation [45] and the results are expressed as the mean of at least two independent experiments.

[7] = target: T3, 5-HT2A receptor (Homo sapiens, UniProt P28223); experiment: Functional assay for 5-HT2A receptor (aequorin, CHO-K1 cells); type: cell-based
T3 construct: expressed in transfected cells; host or cells: CHO-K1

[8] = Bi-directional Caco-2 permeability assay; type: in vitro ADME; conditions: human, pH 7.4, Caco-2, 10 µM, triplicate
[9] = target: T4, CYP3A4 (Homo sapiens, UniProt P08684); experiment: CYP3A4 P450-Glo assay; type: in vitro ADME; conditions: 10 μM of compound
T4 construct: purchased Promega
Procedure: The luminescent CYP3A4 P450-Glo™ Promega® (Madison, WI, USA) was used for the investigation of potential drug-drug interactions. All assays and protocols were described before. The compounds were tested in triplicate at the final concentrations in the range from 0.01 to 25 μM. The luminescent signal was measured by using a microplate reader EnSpire PerkinElmer (Waltham, MA, USA).

[10] = test system: Salmonella Typhimurium TA100; type: cell-based
[11] = test system: rats; experiment: Forced swim test (FST); type: in vivo, rat; conditions: for Immobility Time: 60 min before test, mean ± SEM
Procedure: The experiment was carried out according to the method of [54]. On the first day of the experiment, the animals were gently individually placed in Plexiglas cylinders (40 cm high, 18 cm in diameter) containing 15 cm of water maintained at 23–25 °C for 15 min. On removal from water, the rats were placed for 30 min in a Plexiglas box under 60-W bulb to dry. On the following day (24 h later), the rats were replaced in the cylinder and the total duration of immobility was recorded during the whole 5-min test period. The immobility was assigned when no additional activity was observed other than that necessary to keep the rat’s head above the water. Fresh water was used for each animal.

[12] = test system: rats; experiment: Elevated plus-maze (EPM) test; type: in vivo, rat; conditions: for Open Arms % of entries / Open Arms % of time / Open Arms Distance / Open Arms Entries / Open Arms Time: mean ± SEM
From the text: The testing procedure was based on a method described by. Plus-maze apparatus (an automated device produced by Campden Instruments Ltd. (Leicestershire, UK) made of durable, high density, non-porous black plastic, elevated to a height of 50 cm, consisted of two open arms (50 × 10 cm) and two closed arms (50 × 10 cm, and 30 cm high walls), arranged so that the two arms of each type were opposite each other. The floor of the plus-maze was made of infrared transparent material what means that there are no visible sensors. Plus-maze apparatus was connected to PC software by control chassis. The experiments were conducted in a darkened room, only the center of the maze was illuminated with low-intensity light (30 lux measured on the maze level). Each rat was gently placed in the center of the plus-maze, facing one of the closed arms, immediately after a 5-min adaptation period in a plastic black box (60 × 60 × 35 cm), to increase the overall activity in the EPM. During a 5-min test period, automated Motor Monitor System recorded the number of entries into the closed and open arms and the time spent in either type of arms. The device counted an effective arm-entry when the four paws of a rat were into any arm. The maze was thoroughly cleaned after each trial. The EPM test is an “unconditional” anxiety-like test based on rodents’ natural aversion to heights and open space.

[13] = test system: rats; experiment: Exploratory activity measured in the EPM test; type: in vivo, rat; conditions: for Total Distance / X Ambulation / Y Ambulation: mean ± SEM
Procedure: The experiment was performed using an EPM apparatus (details see above). Total ambulation (the total distance covered by a rat, and ambulation along X and Y axis) was taken to discern drug effects on general activity from those on open-arm exploration, during a 5-min test period (i.e., the time equal to the observation period in the EPM test). Rats’ behavior was not videotaped during the test.

[14] = target: human 5-HT6R; conditions: ± SD; read-out: Ki 5-HT6 (converted); cited from earlier work
[15] = target: dopaminergic receptor D2; conditions: ± SD; cited from earlier work
[16] = target: 5-HT7R; conditions: ± SD; read-out: Ki 5-HT7 (converted); cited from earlier work
[17] = cited from earlier work
[18] = test system: hepatoma HepG2 cell line; conditions: 50 µM; cited from earlier work
[19] = target: T1, human serotonin 5-HT6 receptor; parameters: host or cells: 1321N1; conditions: cited from earlier work

T1 sequence (P50406 whole entry): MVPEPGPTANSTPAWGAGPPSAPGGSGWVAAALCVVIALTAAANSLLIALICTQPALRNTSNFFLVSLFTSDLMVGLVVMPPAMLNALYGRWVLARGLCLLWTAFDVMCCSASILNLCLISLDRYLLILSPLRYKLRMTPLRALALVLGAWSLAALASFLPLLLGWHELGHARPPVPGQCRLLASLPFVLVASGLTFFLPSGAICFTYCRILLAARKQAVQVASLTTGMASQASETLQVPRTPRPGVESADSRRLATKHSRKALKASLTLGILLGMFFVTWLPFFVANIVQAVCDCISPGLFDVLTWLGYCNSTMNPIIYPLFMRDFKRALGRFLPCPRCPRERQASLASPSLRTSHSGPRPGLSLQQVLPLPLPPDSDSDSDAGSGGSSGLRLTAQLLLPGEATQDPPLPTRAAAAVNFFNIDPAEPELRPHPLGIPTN
T3 sequence (P28223 whole entry): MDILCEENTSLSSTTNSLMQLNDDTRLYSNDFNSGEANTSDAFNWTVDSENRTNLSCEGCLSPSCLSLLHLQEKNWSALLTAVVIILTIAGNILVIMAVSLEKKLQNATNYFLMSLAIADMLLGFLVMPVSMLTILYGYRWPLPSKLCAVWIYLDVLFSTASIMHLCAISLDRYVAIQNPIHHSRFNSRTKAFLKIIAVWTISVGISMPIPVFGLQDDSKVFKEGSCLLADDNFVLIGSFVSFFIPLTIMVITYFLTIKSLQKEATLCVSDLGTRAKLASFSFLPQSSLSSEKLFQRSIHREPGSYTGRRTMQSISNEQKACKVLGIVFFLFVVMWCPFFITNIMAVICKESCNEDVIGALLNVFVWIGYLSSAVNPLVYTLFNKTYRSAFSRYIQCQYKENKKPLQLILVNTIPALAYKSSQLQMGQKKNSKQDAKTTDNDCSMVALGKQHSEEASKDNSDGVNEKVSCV
T4 sequence (P08684 whole entry): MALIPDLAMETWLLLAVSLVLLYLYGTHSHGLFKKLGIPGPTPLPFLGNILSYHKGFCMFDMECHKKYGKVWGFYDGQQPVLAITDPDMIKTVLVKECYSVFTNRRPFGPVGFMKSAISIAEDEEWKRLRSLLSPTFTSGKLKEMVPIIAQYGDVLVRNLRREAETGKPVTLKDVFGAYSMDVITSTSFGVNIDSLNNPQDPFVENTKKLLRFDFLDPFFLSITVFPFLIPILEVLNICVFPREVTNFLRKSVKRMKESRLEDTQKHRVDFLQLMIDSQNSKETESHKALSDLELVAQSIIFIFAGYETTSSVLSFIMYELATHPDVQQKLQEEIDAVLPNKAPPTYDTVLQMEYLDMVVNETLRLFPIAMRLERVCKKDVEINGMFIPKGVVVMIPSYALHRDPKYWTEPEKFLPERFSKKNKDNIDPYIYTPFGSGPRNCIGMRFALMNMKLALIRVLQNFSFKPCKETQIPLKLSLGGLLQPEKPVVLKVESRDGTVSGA

COc1ccc(NS(=O)(=O)c2ccc(I)cc2)cc1N1CCN(C)CC1 [SB258585]
5-HT6 Antagonist Mode Emax ([1]; Table S1, % of reference antagonist (SB258585 10^-5 M)): 100%
5-HT6R Agonist Mode Emax ([1]; ± SEM, % of maximal agonist response (Serotonin 10^−5 M)): 2.00 ± 0.50%

C[C@]12N[C@H](Cc3ccccc31)c1ccccc12 [MK-801, MK-801 maleate, reference compound]
Total Exploratory Time in T2 Session [2]: 42.00 ± 3.13 s and 47.07 ± 3.89 s
Discrimination Index ([3]; MK-801 0.1 mg/kg i.p. + vehicle): −0.07 ± 0.01

CN(C)CCn1cnc2ccc(NS(=O)(=O)c3ccc4c(Cl)cccc4c3)cc21 [AN-2]
Ki [4]: 0.009 µM
dose with procognitive effect in the NOR test [5]: 1 mg/kg

CN(C)CCc1c[nH]c2ccc(NS(=O)(=O)c3c(Cl)nc4sccn34)cc12 [AG-1]
dose with procognitive effect in the NOR test [5]: 2.5 mg/kg

CCC(Oc1cc(Cl)ccc1Cl)c1nc(N)nc(N2CCN(C)CC2)n1 (racemic) [Compound 1, (RS)-4-[1-(2,5-dichlorophenoxy)propyl]-6-(4-methylpiperazin-1-yl)-1,3,5-triazin-2-amine]
Ki [6]: 4.76 ± 1.19 µM
Emax ([7]; Table S2, read-out: 5-HT2A Antagonist mode Emax): 0%
Emax ([7]; read-out: 5-HT2AR Agonist Mode Emax): 58 ± 9.7%
Papp A→B at 2 h, 10 µM [8]: 14.2 ± 0.36 ×10⁻⁶ cm/s
Papp B→A at 2 h, 10 µM [8]: 22.2 ± 1.92 ×10⁻⁶ cm/s
CYP3A4 activity remaining [9]: 44%
Binomial B-Value ([10]; 1 µM): 0.0707
Number of Revertants ± SD ([10]; 1 µM): 2.00 ± 1.00
Binomial B-Value ([10]; 10 µM): 0.0707
Number of Revertants ± SD ([10]; 10 µM): 2.00 ± 1.00
Immobility Time ([11]; 1 mg/kg i.p.): 241.80 ± 18.7 s
decrease of immobility time vs vehicle-treated group ([11]; 3 mg/kg): about 30%
Immobility Time ([11]; 3 mg/kg i.p.): 175.29 ± 18.1 s
decrease of immobility time vs vehicle-treated group ([11]; 10 mg/kg): about 36%
Immobility Time ([11]; 10 mg/kg i.p.): 163.63 ± 11.2 s
Open Arms % of entries ([12]; 1 mg/kg i.p.): 32.59 ± 4.23%
Open Arms % of time ([12]; 1 mg/kg i.p.): 25.76 ± 6.11%
Open Arms Distance ([12]; 1 mg/kg i.p.): 788 ± 175 cm
Open Arms Entries ([12]; 1 mg/kg i.p.): 9.88 ± 1.99
Open Arms Time ([12]; 1 mg/kg i.p.): 58.90 ± 14.20 s
Open Arms % of entries ([12]; 3 mg/kg i.p.): 29.49 ± 3.48%
Open Arms % of time ([12]; 3 mg/kg i.p.): 10.27 ± 2.05%
Open Arms Distance ([12]; 3 mg/kg i.p.): 307 ± 78 cm
Open Arms Entries ([12]; 3 mg/kg i.p.): 6.14 ± 0.77
Open Arms Time ([12]; 3 mg/kg i.p.): 24.81 ± 5.24 s
Open Arms % of entries ([12]; 10 mg/kg i.p.): 42.23 ± 9.09%
Open Arms % of time ([12]; 10 mg/kg i.p.): 18.34 ± 4.19%
Open Arms Distance ([12]; 10 mg/kg i.p.): 538 ± 104 cm
Open Arms Entries ([12]; 10 mg/kg i.p.): 7.20 ± 1.66
Open Arms Time ([12]; 10 mg/kg i.p.): 43.36 ± 9.08 s
anxiolytic-like activity in EPM test ([12]; i.p., 60 min before test): did not show anxiolytic-like activity
Total Distance ([13]; 1 mg/kg i.p.): 4520 ± 168 cm
X Ambulation ([13]; 1 mg/kg i.p.): 172 ± 6
Y Ambulation ([13]; 1 mg/kg i.p.): 99 ± 6
Total Distance ([13]; 3 mg/kg i.p.): 3995 ± 218 cm
X Ambulation ([13]; 3 mg/kg i.p.): 146 ± 10
Y Ambulation ([13]; 3 mg/kg i.p.): 82 ± 7
decrease of total distance ([13]; 10 mg/kg i.p.): 20%
Total Distance ([13]; 10 mg/kg i.p.): 3681 ± 256; p < 0.05 F(3,24) = 4.5291; p < 0.05 cm
X Ambulation ([13]; 10 mg/kg i.p.): 140 ± 11 F(3,24) = 3.8035; p < 0.05
Y Ambulation ([13]; 10 mg/kg i.p.): 83 ± 8 F(3,24) = 1.9215; NS
Ki [14]: 0.006 ± 0.001 µM
Ki [15]: 0.32 ± 0.019 µM
Ki [16]: 5.71 ± 0.967 µM
number of metabolites formed ([17]; RLMs, 120 min): six
parent biotransformed ([17]; RLMs, 120 min): more than 90%
parent remaining (metabolic stability) ([17]; compound 1, RLMs): < 10%
hepatotoxic effect, HepG2 [18]: weak hepatotoxic effect
effective dose in NOR test ([3]; i.p.): 3 mg/kg
5-HT6 Antagonist Mode Emax ([19]; Table S1, compound 1): 98%
5-HT6R Agonist Mode Emax ([19]; compound 1, previous functional assays): 4.00 ± 0.00%

NCCc1cn(S(=O)(=O)c2c(Cl)nc3sccn23)c2ccccc12 [AG-2]
dose with procognitive effect in the NOR test [5]: 3 mg/kg

COc1ccc2c(c1)c(C1=CCNCC1)cn2S(=O)(=O)c1cncc2ccccc12 [AN-1]
Ki [4]: 0.003 µM
dose with procognitive effect in the NOR test [5]: 1 mg/kg
